Assay results as given in US8153687B2, “Gallium complexes with polyalcohols and methods of use” (priority 2009, dated 2012).

Tested on: Pseudomonas aeruginosa
Experiment: Topical treatment of a recalcitrant Pseudomonas aeruginosa infected diabetic foot ulcer (case)
Assay type: in vivo
Settings: severe diabetic foot ulcer with biofilm formation

| Compound | response of the infection to treatment (topical treatment) | response of the infection to treatment (oral treatment) |
| --- | --- | --- |
| gentamicin | does not respond |  |
| Oc1cc(Cl)ccc1Oc1ccc(Cl)cc1Cl [triclosan] | does not respond |  |
| O=C(O)c1cn(C2CC2)c2cc(N3CCNCC3)c(F)cc2c1=O [ciprofloxacin] | does not respond | does not respond |
